{"source": "patent US8889126B2", "about": "“Methods and compositions for treating neuropathies” (Washington University, priority 2004, dated 2014)", "key": {"[1]": {"tested_on": "DRG explant neurons", "assay": "in vitro Wallerian degeneration assay: DRG explant cultures, axonal transection by removal of neuronal cell bodies", "type": "cell-based, mouse", "conditions": "for effect on NAD-dependent axonal protection (NDAP): neurons cultured in 1 mM NAD, Sirtinol 100 μM, 3AB 20 mM or lentiviral siRNA, assessed 12 to 72 hr after transection; for increase in intact neurites at 48 hours after transection: 1 mM exogenous application; for neurite protection from degeneration: 1 mM in culture media for 24 hours before neurite transection", "procedure": "To identify the mechanism of delayed axonal degeneration mediated by the Wld^s protein, we employed an in-vitro Wallerian degeneration model. Primary DRG explant neurons were infected with lentivirus expressing the appropriate proteins, and axons were injured by either removal of the neuronal cell body (transection) or growth in vincristine (toxic).\nMouse DRG explants from E12.5 embryos were cultured in the presence of 1 nM nerve growth factor. Non-neuronal cells were removed from the cultures by adding 5-fluorouracil to the culture medium. Transection of neurites was performed at 10-20 DIV using an 18-gauge needle to remove the neuronal cell bodies. Incubation with β-nicotinamide adenine dinucleotide (Sigma) or Sirtinol (Calbiochem) was performed using conditions indicated in the text or figures.\nLentiviral expression vectors were generated using HEK293T cells as described above. For confirmation of lentivirus-derived protein expression, HEK293T cells were infected with lentivirus and cells were lysed 3 days after infection. These lysates were analyzed by immunoblot to using anti-His tag monoclonal antibody (Qiagen) to detect expression of the respective hexahistidine-tagged proteins. Lentiviral infection of DRG neurons was performed by incubating ˜10^6-10^7 pfu/ml virus with the DRG explant for 24 h beginning 3-7 days prior to axonal transection. The infected neurons were examined under an inverted fluorescent microscope to insure detectable lentivirus-mediated transgene expression in >95% of neurons.\nQuantitative analysis of axonal degeneration was performed as previously described (Zhai, et al., Neuron 39:217-25, 2003). Briefly, the cultures were examined using phase contrast microscopy at the indicated times. Axons with a fragmented, non-refractile appearance were designated as “degenerated.” At each time point, at least 200 singly distinguishable axons were blindly scored from several randomly taken images of each culture. Each condition was tested in triplicate explants in each experiment. Results were obtained from 2-4 independent experiments for each condition. Statistical analysis was performed by Student's T test. For calculations of neurite-covered area, digitally captured images from quadruplicate samples of two independent experiments were analyzed using analysis 3.1 software (Soft Imaging System, Lakewood, Colo.).\nCell culture, in vitro axotomy, and quantification of axonal degeneration. Mouse DRG explants from E12.5 embryos were cultured in the DMEM containing 10% FCS and 1 nM nerve growth factor. Non-neuronal cells were removed from the cultures by adding 5-fluorouracil to the culture media. Transection of neurites was performed at 14-21 DIV using an 18-gauge needle to remove the neuronal cell bodies. Lentiviral expression vectors were generated. Lentiviral infection was performed 3-7 days prior to axonal transection for 24 hr. Quantitative analysis of neurite degeneration was performed."}, "[2]": {"tested_on": "optic nerve (retinal ganglion cell axons)", "assay": "optic nerve transection after intravitreal injection of NAD biosynthetic substrates, neurofilament immunoreactivity by Western blotting", "type": "in vivo, rat", "conditions": "24 hours before transection, 4 days after transection", "procedure": "Administration of NAD biosynthetic substrates and optic Nerve transection. Nam, NMN, NmR, or NAD was dissolved in PBS at the concentration of 100 mM or 1 M. Each of 5 μl solution was injected into left intravitreal component under the anesthesia at a rate of […]. The left optic nerve was transected at 24 hours after intravitreal injection and optic nerve was recovered at indicated time. Optic nerve tissue was homogenized in 100 μl of a buffer containing 100 mM tris-HCl (pH 6.8), 1 SDS, and 1 mM DTT. Fifty μg of protein for each sample was analyzed by the Western blotting using anti-neurofilament antibody 2H3 (Developmental Studies Hybridoma Center) and peroxidase-conjugated secondary antibody (Jackson ImmunoResearch). The degeneration rate was calculated from the ratio of the neurofilament immunoreactivity of transected vs. contralateral nerves.\nTransection of optic nerve is an in vivo model which can be used to investigate mechanisms leading to Wallerian degeneration and following retinal ganglion cell (RGC) death observed in human diseases such as glaucoma. In the C57BL/Wlds mouse strain, optic nerve degeneration during Wallerian degeneration after axotomy is dramatically slowed. In addition, intravitreal injection is used for screening of compounds that protect RGC axon from degeneration in vivo and thus we can asses the axon protective effect of each NAD biosynthetic substrates in vivo by intraocular injection of compounds including NAD, NMN, NmR, and Nam. […] We initially injected 5 μl of 100 mM or 1 M NAD solution into left intravitreal compartment. After 24 hours incubation, left optic nerve was transected and control (right) and axotomized (left) optic nerve were collected at 3, 4, and 5 days after transection. Neurofilament immunoreactivity from the axotomized optic nerve was measured and normalized against the value obtained from the right side of the optic nerve.\nFIG. 9 illustrates optic nerve transection after intravitreal injection of NAD biosynthetic substrates. In these experiments, NAD biosynthetic substrate NAD, NMN, NmR, or Nam was injected into the intravitreal compartment of a left rat eye and allowed to incorporate in retinal ganglion cells for 24 hours. The left optic nerve was then transected by eye enucleation. The right and left optic nerves were collected at 4 days after transection and analyzed by Western blotting. Optic nerves transected from mice without any treatment prior to axotomy served as negative controls. FIG. 9 presents quantitative analysis data, displaying percentage of remaining neurofilament immunoreactivity from transected optic nerve relative to non-transected controls. Data is presented as percent remaining immunoreactivity±S.D."}, "[3]": {"tested_on": "Nrk2", "assay": "NAD synthesis enzyme mRNA levels (qRT-PCR) in cultured DRG neurons treated with rotenone", "type": "cell-based, rat", "conditions": "0.1 μM and 1 μM rotenone, RNA collected at 24 hours", "procedure": "Real-time quantitative reverse transcription-PCR analysis. All the surgical procedures were performed according to National Institute of Health guidelines for care and use of laboratory animals at Washington University. For the expression analysis following nerve injury, the sciatic nerves of a C57BL/6 mouse was transected and L4 to L5. DRGs were collected at indicated time points and pooled to extract RNA. […] Total RNAs from pooled tissue sources or DRG explant cultures were prepared. First-strand cDNA templates were prepared from 1 μg of each RNA using standard methods. Two independent cDNA syntheses were performed for each RNA sample. Quantitative reverse transcription (RT)-PCR was performed by monitoring in real-time the increase in fluorescence of the SYBR-GREEN dye on a TaqMan 7700 Sequence Detection System (Applied Biosystems).\nTo investigate the expression of mammalian NAD biosynthetic enzymes in the nervous system, we performed quantitative RT-PCR using RNA from mouse brain, retina, spinal code, and DRG at age of E14, P0, P7, P14 and P21. […] We also analyzed expression of NAD synthetic enzymes during the axonal degeneration caused by neurotoxin in cultured rat DRG neuron. […] FIG. 6B illustrates neurite degeneration introduced by incubation DRG in 1 or 0.1 μM rotenone for indicated time and NAD synthesis enzyme mRNA levels were determined by qRT-PCR as described in the text."}}, "note": "Entries after “also recorded” stand apart in the source; their conditions may differ. Where two headings read alike, the source gives them in different places."}
{"molecule": "NC(=O)c1cccc(N)c1", "note": "[3AB, 3-aminobenzamide, reference compound]", "values": [{"measurement": "effect on NAD-dependent axonal protection (NDAP)", "setting": "[1]", "result": "had no effect on NDAP"}]}
{"molecule": "NC(=O)c1ccc[n+]([C@@H]2O[C@H](COP(=O)([O-])OP(=O)(O)OC[C@H]3O[C@@H](n4cnc5c(N)ncnc54)[C@H](O)[C@@H]3O)[C@@H](O)[C@H]2O)c1", "note": "[NAD, β-nicotinamide adenine dinucleotide]", "values": [{"measurement": "neurofilament immunoreactivity of axotomized optic nerve, of non-axotomized optic nerve", "setting": "[2]; 5 μl of 100 mM intravitreal", "result": "78±22", "unit": "%"}, {"measurement": "neurofilament immunoreactivity of axotomized optic nerve, of non-axotomized optic nerve", "setting": "[2]; 5 μl of 1 M intravitreal", "result": "77±27", "unit": "%"}]}
{"molecule": "NC(=O)c1ccc[n+]([C@@H]2O[C@H](COP(=O)([O-])O)[C@@H](O)[C@H]2O)c1", "note": "[NMN, nicotinamide mononucleotide]", "values": [{"measurement": "neurofilament immunoreactivity of axotomized optic nerve, of non-axotomized optic nerve", "setting": "[2]; 5 μl of 100 mM intravitreal", "result": "60±25", "unit": "%"}, {"measurement": "protection against axonal degeneration (summary statement of the in vitro study)", "setting": "[1]", "result": "have axon saving activity"}, {"measurement": "increase in intact neurites at 48 hours after transection", "setting": "[1]", "result": "comparable increase in intact neurites"}, {"measurement": "neurite protection relative to exogenously applied NAD (quantitative analysis)", "setting": "[1]; 1 mM for 24 hours before transection", "result": "neurite protection to an extent similar to that achieved by exogenously applied NAD"}, {"measurement": "neurite protection from degeneration", "setting": "[1]", "result": "successfully saved neurites from degeneration; also recorded: enough to protect axon from degeneration"}, {"measurement": "protection against axonal degeneration (summary statement of the in vitro study)", "setting": "[1]; listed as nicotinamide mononucleotide", "result": "protected against axonal degeneration to a similar extent as did NAD"}]}
{"molecule": "O=C(O)c1cccnc1", "note": "[Na, nicotinic acid]", "values": [{"measurement": "protection against axonal degeneration (summary statement of the in vitro study)", "setting": "[1]", "result": "did not"}, {"measurement": "neurite protection from degeneration", "setting": "[1]", "result": "failed to save neurites"}]}
{"molecule": "Nc1ncnc2c1ncn2[C@@H]1O[C@H](COP(=O)(O)OP(=O)(O)OC[C@H]2O[C@@H]([n+]3cccc(C(=O)O)c3)[C@H](O)[C@@H]2O)[C@@H](O)[C@H]1O", "note": "[NaAD, nicotinic acid adenine dinucleotide]", "values": [{"measurement": "increase in intact neurites at 48 hours after transection", "setting": "[1]", "result": "less increase in intact neurites at 48 hours compared with NAD"}, {"measurement": "neurite protection from degeneration", "setting": "[1]", "result": "slight protection"}]}
{"molecule": "O=C(O)c1ccc[n+]([C@@H]2O[C@H](COP(=O)(O)O)[C@@H](O)[C@H]2O)c1", "note": "[NaMN, nicotinate mononucleotide]", "values": [{"measurement": "protection against axonal degeneration (summary statement of the in vitro study)", "setting": "[1]", "result": "protected against axonal degeneration to a similar extent as did NAD"}, {"measurement": "increase in intact neurites at 48 hours after transection", "setting": "[1]", "result": "comparable increase in intact neurites"}, {"measurement": "neurite protection from degeneration", "setting": "[1]", "result": "saved neurites as well as NAD"}]}
{"molecule": "NC(=O)c1cccnc1", "note": "[Nam, nicotinamide]", "values": [{"measurement": "neurofilament immunoreactivity of axotomized optic nerve, of non-axotomized optic nerve", "setting": "[2]; 5 μl of 100 mM intravitreal", "result": "did not show any difference from the control animals"}, {"measurement": "protection against axonal degeneration (summary statement of the in vitro study)", "setting": "[1]", "result": "does not"}, {"measurement": "neurite protection from degeneration", "setting": "[1]", "result": "had no effect"}, {"measurement": "protection against axonal degeneration (summary statement of the in vitro study)", "setting": "[1]; listed as nicotinamide", "result": "did not"}]}
{"molecule": "NC(=O)c1ccc[n+]([C@@H]2O[C@H](CO)[C@@H](O)[C@H]2O)c1", "note": "[NmR, nicotinamide riboside]", "values": [{"measurement": "neurofilament immunoreactivity of axotomized optic nerve, of non-axotomized optic nerve", "setting": "[2]; 5 μl of 100 mM intravitreal", "result": "72±19", "unit": "%"}, {"measurement": "protection against axonal degeneration (summary statement of the in vitro study)", "setting": "[1]", "result": "have axon saving activity"}, {"measurement": "increase in intact neurites at 48 hours after transection", "setting": "[1]", "result": "comparable increase in intact neurites"}, {"measurement": "neurite protection from degeneration", "setting": "[1]", "result": "saved neurites as well as NAD; also recorded: enough to protect axon from degeneration"}, {"measurement": "protection against axonal degeneration (summary statement of the in vitro study)", "setting": "[1]; listed as nicotinamide riboside", "result": "protected against axonal degeneration to a similar extent as did NAD"}]}
{"molecule": "CC(NC(=O)c1ccccc1/N=C/c1c(O)ccc2ccccc12)c1ccccc1", "note": "(stereo not shown) [Sirtinol, reference compound]", "values": [{"measurement": "effect on NAD-dependent axonal protection (NDAP)", "setting": "[1]", "result": "effectively blocked NDAP"}]}
{"molecule": "Oc1ccc(C=Cc2cc(O)cc(O)c2)cc1", "note": "[resveratrol, reference compound]", "values": [{"measurement": "axonal degradation after axotomy", "setting": "[1]; 10~100 μM, treated prior to axotomy", "result": "decrease in axonal degradation that was comparable to that obtained using NAD"}]}
{"molecule": "C=C(C)[C@H]1Cc2c(ccc3c2O[C@@H]2COc4cc(OC)c(OC)cc4[C@@H]2C3=O)O1", "note": "[rotenone]", "values": [{"measurement": "expression of Nrk2 (mRNA)", "setting": "[3]", "result": "more than 6 folds"}]}
